Entries after “also recorded” stand apart in the source; their conditions may differ.
Assays:
[1] = test system: MCF10A ARID1A KO cells; assay: cell survival screen with clinically applicable kinase inhibitors; assay type: cell-based; conditions: MCF10A system, ARID1A KO vs WT, ratios of Z-scores
From the text: FIG. 2: Generation of ARID1A KO cells in (A) GES1, (B) MCF10A, (C) OVCAR3, (D) Ratios of Z-scores, showing hits from preliminary FDA approved kinase inhibitor screen.
ARID1A Knockout (KO) cell lines were generated using CRISPR-Cas9 gene editing in multiple cellular contexts where ARID1A is lost-Gastric (GES1), Breast (MCF10A), and Ovarian (OVCAR3) (FIG. 2 A-C).

[2] = test system: GES1 ARID1A WT and KO cells; assay: Cell titre blue assay in GES1 ARID1A WT and KO cells; assay type: cell-based; conditions: GES1 ARID1A WT vs KO
From the text: (§1) This synthetic lethal interaction was validated using Volasertib in multiple isogenic ARID1A WT and KO cell lines, using cell proliferation and colony formation assays (FIG. 3 A-E).

[3] = test system: MCF10A ARID1A WT and KO cells; assay: Cell titre blue assay in MCF10A ARID1A WT and KO cells; assay type: cell-based; conditions: MCF10A ARID1A WT vs KO
From the text: as §1

[4] = test system: GES1 ARID1A-WT and KO cells; assay: colony formation assay in GES1 ARID1A-WT and KO cells; assay type: cell-based; conditions: GES1 ARID1A-WT vs KO
From the text: as §1

[5] = test system: OVCAR3 ARID1A WT and KO cells; assay: Cell proliferation assays in OVCAR3 cells; assay type: cell-based; conditions: OVCAR3 ARID1A WT vs KO
From the text: as §1

[6] = test system: OVCAR3-ARID1A KO xenografts; assay: mouse xenograft experiments with OVCAR3-ARID1A WT or KO cells; assay type: in vivo; conditions: Nude (SCID) mice, 15 mg/kg body weight once per week for 4 weeks
Protocol: Nude (SCID) mice received sub-cutaneous injections of OVCAR3-ARID1A WT or KO cells. Tumors were visible 10 days post injection, after which the animals were treated with Volasertib (15 mg/kg body weight) or vehicle once per week for 4 weeks. Body mass and tumor volumes were recorded twice per week. Mice were sacrificed at the end of 4 weeks of treatment and tumors were isolated and imaged, (B) Body mass measurements of mice measured twice per week, (C) Tumor volume measurements of mice measured twice per week, p<0.05, student's t-test, (D) Images of OVCAR3-ARID1A WT/KO tumors isolated from mice after sacrifice, (E) Dot plot of tumor area from D showing changes in tumor area in OVCAR3-ARID1A KO vs OVCAR3-ARID1A KO+volasertib treatment. Tumor area was calculated from the images in image J using the ruler to set scale and applying free hand tool to measure the tumor area.
as §1

[7] = test system: GES1 ARID1A WT and KO cells; assay: mitochondrial depolarization measured using JC-1; assay type: cell-based; conditions: post treatment
From the text: (§2) HSC70 was used as loading control.

[8] = test system: GES1 ARID1A-WT and KO cells; assay: Annexin-V staining (apoptosis); assay type: cell-based
From the text: as §2

[9] = test system: GES1 cells; assay: Western blots of cleaved PARP in GES1 cells; assay type: cell-based; conditions: GES1 whole cell lysates, indicated time points
From the text: as §2

[10] = test system: OVCAR3 cells; assay: Western blots of cleaved PARP in OVCAR3 cells; assay type: cell-based; conditions: OVCAR3 whole cell lysates, indicated time points
From the text: as §2

[11] = test system: GES1-ARID1A isogenic cell lines; assay: metabolomics by 1D NMR; assay type: cell-based; conditions: GES1-ARID1A WT and KO
From the text: (B) Heat map of important metabolites up/down regulated in GES1-ARID1A WT and KO with and without volasertib treatment, as measured by 1D NMR.
In addition, ARID1A loss causes a dramatic alteration in transcriptome leading to up or down regulation of many important biological pathways (FIG. 6).

[12] = test system: cancer; conditions: Phase II clinical trials; cited from earlier work

SMILES	sensitivity of cells with loss of ARID1A in cell survival screen [1]	synthetic lethality, cell titre blue assay [2]	synthetic lethality, cell titre blue assay [3]	synthetic lethality, colony formation assay [4]	synthetic lethality, cell proliferation assays [5]	anti-tumor activity on xenografts (tumor volume, tumor area) [6]	anti-tumor activity on xenografts (tumor volume, tumor area) ([6]; 15 mg/kg)	mitochondrial depolarization (JC-1) [7]	apoptosis and cell killing ([8]; ARID1A KO cells)	apoptosis, Annexin-V positive cells ([8]; GES1 ARID1A-KO cells, post treatment)	cleaved PARP accumulation [9]	cleaved PARP accumulation [10]	changes in metabolic intermediates / metabolomics [11]	clinical result as monotherapy [12]
COc1cc(C(=O)NC2CCN(C)CC2)c(F)cc1Nc1ncc2c(n1)N(C1CCCC1)CC(F)(F)C(=O)N2C [TAK960]	preferentially sensitivity													
CC[C@@H]1C(=O)N(C)c2cnc(Nc3ccc(C(=O)N[C@H]4CC[C@H](N5CCN(CC6CC6)CC5)CC4)cc3OC)nc2N1C(C)C [Volasertib]		synthetic lethality between ARID1A loss and Volasertib	synthetic lethality between ARID1A loss and Volasertib	synthetic lethality between ARID1A loss and Volasertib	synthetic lethality between ARID1A loss and Volasertib	Anti-tumor activity	synthetically lethal relationship was also demonstrated	markedly increases mitochondrial depolarization; also recorded: increased depolarization post Volasertib treatment in a time dependent manner	selective cell killing in ARID1A KO cells	further increase post Volasertib treatment	increased accumulation of cleaved PARP	increased accumulation of cleaved PARP	profound changes in the metabolomics; also recorded: exacerbated upon volasertib treatment	encouraging results as monotherapy

— US20230416836A1, “METHOD FOR PREDICTING RESPONSIVENESS TO PLK1 INHIBITION” (National University of Singapore, priority 2020, published 2023)
